Data published in PubChem BioAssay (NCI).
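Each compound was tested at five concentrations against cells in 96-well plates for 48 hours. GI50 marks 50% less growth. TGI: total growth inhibition.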

Assays:
Experiment in all cases: NCI tumour cell line growth inhibition, 48 h
COLO 205 colon = tested on: COLO 205 colon
EKVX NSCLC = tested on: EKVX NSCLC
KM12 colon = tested on: KM12 colon
MCF7 breast = tested on: MCF7 breast
MOLT-4 leukemia = tested on: MOLT-4 leukemia
NCI-H522 lung = tested on: NCI-H522 lung
OVCAR-5 ovarian = tested on: OVCAR-5 ovarian
SK-MEL-28 melanoma = tested on: SK-MEL-28 melanoma
SK-MEL-5 melanoma = tested on: SK-MEL-5 melanoma
SNB-19 CNS = tested on: SNB-19 CNS

Row | SMILES | TGI (COLO 205 colon) [µM] | TGI (EKVX NSCLC) [µM] | TGI (KM12 colon) [µM] | TGI (MCF7 breast) [µM] | TGI (MOLT-4 leukemia) [µM] | TGI (NCI-H522 lung) [µM] | TGI (OVCAR-5 ovarian) [µM] | TGI (SK-MEL-28 melanoma) [µM] | TGI (SK-MEL-5 melanoma) [µM] | TGI (SNB-19 CNS) [µM] | GI50 (COLO 205 colon) [µM] | GI50 (EKVX NSCLC) [µM] | GI50 (KM12 colon) [µM] | GI50 (MCF7 breast) [µM] | GI50 (MOLT-4 leukemia) [µM] | GI50 (NCI-H522 lung) [µM] | GI50 (OVCAR-5 ovarian) [µM] | GI50 (SK-MEL-28 melanoma) [µM] | GI50 (SK-MEL-5 melanoma) [µM] | GI50 (SNB-19 CNS) [µM]
1 | Cc1ccc(OC(=O)N2C/C(=C\c3ccccc3)C(=O)/C(=C/c3ccccc3)C2)cc1 | > 100 | > 100 | 45.7 | 56 | 18.5 | 33.8 | > 100 | > 75 | > 57.3 | > 100 |  |  |  |  |  |  |  |  |  | 
2 | CC[C@H]1OC(=O)[C@H](C)[C@@H](O[C@H]2C[C@@](C)(OC)[C@@H](O)[C@H](C)O2)[C@H](C)[C@@H](O[C@@H]2O[C@H](C)C[C@H](N(C)C)[C@H]2O)[C@](C)(OC)C/C(C)=C2/O[C@@]1(C)C=C2C | 3.69 | 3.26 | 3.11 | 3.63 | 4.49 | 3.63 | 3.06 | 3.32 | 3.21 | 3.13 | 1.68 | 1.71 | 1.63 | 1.82 | 1.96 | 1.72 | 1.68 | 1.89 | 1.79 | 1.7
3 | Cc1cc(NN=C(c2ccc(O)cc2)c2ccc(O)cc2)c([N+](=O)[O-])cc1[N+](=O)[O-] | 40.5 | 26.6 | 24 | 20.4 | 14.6 | 11.4 | 36.6 | 21.2 | 3.74 | 0.935 | 5.87 | 4.54 | 4.6 | 2.93 | 1.84 | 1.08 | 11.1 | 5.59 | 0.308 | 
4 | CN1CC[C@H](c2c(O)cc(O)c3c(=O)cc(-c4ccccc4Cl)oc23)[C@H](O)C1 | 0.209 | 0.559 | > 10 | > 10 | > 10 | 0.847 | > 10 | 1.3 | 0.159 | > 10 | 0.0433 |  |  | 0.028 | 0.076 | 0.102 | 0.0533 |  | 0.052 | 0.0647
5 | COc1cc(/C=C2\SC(N3CCCCC3)=NC2=O)ccc1OCCCCCCOc1ccc(/C=C2\SC(N3CCCCC3)=NC2=O)cc1OC | > 100 | 76.6 | 25 | 44.9 | > 100 | 22 | 59.1 | 43.9 | 28.2 | 39.7 | 19.9 | 12 | 11.1 | 15.1 | 17.4 | 3.18 | 22.9 | 15.7 | 9.35 | 9.58
6 | O=c1cccc(Cl)[nH]1 | > 100 | > 100 | > 100 | > 100 | > 100 | > 100 | > 100 | > 100 | > 100 | > 100 |  |  |  |  |  |  |  |  |  | 
